PubChem BioAssay (NCI)
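Method: 48-hour compound exposure of cells in 96-well plates, five concentrations, linear interpolation of endpoints. At the TGI there is no net growth.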

Tests used:
Experiment in all cases: NCI anticancer screen, dose series, 48 h
[1] = test system: SW-620 colon
[2] = test system: HOP-62 NSCLC
[3] = test system: COLO 205 colon
[4] = test system: A549 NSCLC
[5] = test system: SNB-19 CNS
[6] = test system: OVCAR-4 ovarian
[7] = test system: EKVX NSCLC
[8] = test system: HL-60(TB) leukemia
[9] = test system: OVCAR-5 ovarian
[10] = test system: DU-145 prostate
[11] = test system: UACC-257 melanoma
[12] = test system: SF-268 CNS
[13] = test system: 786-0 renal
[14] = test system: SN12C renal
[15] = test system: HCT-116 colon
[16] = test system: SF-539 CNS
[17] = test system: HT29 colon
[18] = test system: M14 melanoma
[19] = test system: SK-MEL-28 melanoma
[20] = test system: MCF7 breast
[21] = test system: MDA-N
[22] = test system: NCI/ADR-RES ovarian
[23] = test system: UACC-62 melanoma
[24] = test system: SK-MEL-2 melanoma
[25] = test system: SK-MEL-5 melanoma
[26] = test system: RXF 393 renal
[27] = test system: HCT-15 colon
[28] = test system: A498 renal
[29] = test system: SNB-75 CNS
[30] = test system: K-562 leukemia
[31] = test system: NCI-H522 lung
[32] = test system: CCRF-CEM leukemia
[33] = test system: MDA-MB-231 breast
[34] = test system: OVCAR-8 ovarian
[35] = test system: T-47D breast
[36] = test system: NCI-H460 lung
[37] = test system: ACHN renal
[38] = test system: NCI-H226 lung
[39] = test system: CAKI-1 renal
[40] = test system: HCC-2998 colon
[41] = test system: SK-OV-3 ovarian
[42] = test system: IGROV1 ovarian
[43] = test system: OVCAR-3 ovarian
[44] = test system: MDA-MB-435
[45] = test system: SR leukemia
[46] = test system: HOP-92 NSCLC
[47] = test system: PC-3 prostate
[48] = test system: SF-295 CNS
[49] = test system: UO-31 renal
[50] = test system: NCI-H23 lung
[51] = test system: KM12 colon
[52] = test system: MALME-3M melanoma
[53] = test system: MOLT-4 leukemia
[54] = test system: U251 CNS
[55] = test system: LOX IMVI melanoma
[56] = test system: BT-549 breast
[57] = test system: TK-10 renal
[58] = test system: HS 578T breast
[59] = test system: RPMI-8226 leukemia

`CCOC(=O)c1ccc(NCc2ccc3oc(=O)c(-c4ccccc4)nc3c2)cc1` was tested, and the TGI [1] was 50.4 µM, the TGI [2] was greater than 100 µM and the TGI [3] was 62.6 µM. For the same molecule, the TGI [4] was greater than 100 µM, the TGI [5] was greater than 100 µM and the TGI [6] was 54.1 µM. For the same molecule, the TGI [7] was greater than 100 µM, the TGI [8] was 13.2 µM and the TGI [9] was greater than 100 µM. For the same molecule, the TGI [10] was greater than 100 µM, the TGI [11] was 42 µM and the TGI [12] was greater than 100 µM. For the same molecule, the TGI [13] was greater than 100 µM, the TGI [14] was greater than 100 µM and the TGI [15] was 80.3 µM. It also gave a TGI [16] greater than 100 µM, a TGI [17] greater than 100 µM and a TGI [18] greater than 100 µM. The TGI [19] was 87.3 µM, the TGI [20] was 38 µM and the TGI [21] was 50.8 µM. For the same molecule, the TGI [22] was greater than 100 µM, the TGI [23] was greater than 100 µM and the TGI [24] was greater than 100 µM. It also gave a TGI [25] of 45.2 µM, a TGI [26] of 87.4 µM and a TGI [27] greater than 100 µM. The TGI [28] was greater than 100 µM, the TGI [29] was greater than 100 µM and the TGI [30] was 85.8 µM. It also gave a TGI [31] of 32.1 µM, a TGI [32] of 22.6 µM and a TGI [33] greater than 100 µM. The TGI [34] was 65 µM, the TGI [35] was 34.1 µM and the TGI [36] was greater than 100 µM. For the same molecule, the TGI [37] was greater than 100 µM, the TGI [38] was greater than 100 µM and the TGI [39] was 52.5 µM. The TGI [40] was greater than 100 µM, the TGI [41] was greater than 100 µM and the TGI [42] was greater than 100 µM. The TGI [43] was 90.5 µM, the TGI [44] was 32.7 µM and the TGI [45] was greater than 100 µM. For the same molecule, the TGI [46] was 83 µM, the TGI [47] was greater than 100 µM and the TGI [48] was greater than 100 µM. For the same molecule, the TGI [49] was greater than 100 µM, the TGI [50] was 44.5 µM and the TGI [51] was greater than 100 µM. It also gave a TGI [52] of 38.8 µM, a TGI [53] of 60.4 µM and a TGI [54] greater than 100 µM. It also gave a TGI [55] greater than 100 µM.
In the case of `Cc1sc2nc(-c3cccc([N+](=O)[O-])c3)c(/C=N/N=C(N)N)n2c1C`, the TGI [2] is reported as 3.1 µM, the TGI [3] is reported as 3.72 µM and the TGI [4] is reported as 3.02 µM. For the same molecule, the TGI [7] was 3.06 µM, the TGI [8] was 3.63 µM and the TGI [9] was 3.06 µM. For the same molecule, the TGI [11] was 3.06 µM, the TGI [13] was 3.22 µM and the TGI [16] was 3.72 µM. It also gave a TGI [17] of 2.98 µM, a TGI [18] of 2.95 µM and a TGI [19] of 3.03 µM. It also gave a TGI [21] of 3.15 µM, a TGI [22] of 45.1 µM and a TGI [24] of 3.09 µM. It also gave a TGI [25] of 3.03 µM, a TGI [26] of 3.22 µM and a TGI [27] of 3.03 µM. It also gave a TGI [28] of 2.88 µM, a TGI [31] of 3.17 µM and a TGI [34] of 3.23 µM. For the same molecule, the TGI [37] was 3.08 µM, the TGI [39] was 3.77 µM and the TGI [40] was 2.61 µM. The TGI [41] was 3.3 µM, the TGI [42] was 2.59 µM and the TGI [43] was 4.02 µM. The TGI [44] was 3.18 µM, the TGI [48] was 2.95 µM and the TGI [49] was 3.13 µM. The TGI [51] was 3.24 µM, the TGI [52] was 3.71 µM and the TGI [56] was 2.83 µM. It also gave a TGI [57] of 2.84 µM, a TGI [54] of 3.07 µM and a TGI [55] of 3.16 µM.
`Cc1ccc2c(c1)CC1(Cc3ccccc3C1=O)C2=O` (configuration not stated) was tested, and the TGI [1] was greater than 100 µM, the TGI [2] was greater than 100 µM and the TGI [3] was greater than 100 µM. The TGI [4] was greater than 100 µM, the TGI [5] was greater than 100 µM and the TGI [6] was greater than 100 µM. It also gave a TGI [7] greater than 100 µM, a TGI [8] greater than 100 µM and a TGI [9] greater than 100 µM. It also gave a TGI [10] greater than 100 µM, a TGI [58] greater than 100 µM and a TGI [11] greater than 100 µM. The TGI [12] was greater than 100 µM, the TGI [13] was greater than 100 µM and the TGI [14] was greater than 100 µM. The TGI [15] was greater than 100 µM, the TGI [16] was greater than 100 µM and the TGI [17] was greater than 100 µM. For the same molecule, the TGI [18] was greater than 100 µM, the TGI [19] was greater than 100 µM and the TGI [20] was greater than 100 µM. For the same molecule, the TGI [21] was greater than 100 µM, the TGI [22] was greater than 100 µM and the TGI [23] was greater than 100 µM. For the same molecule, the TGI [25] was greater than 100 µM, the TGI [26] was greater than 100 µM and the TGI [27] was greater than 100 µM. It also gave a TGI [28] greater than 100 µM, a TGI [29] greater than 100 µM and a TGI [30] greater than 100 µM. For the same molecule, the TGI [31] was greater than 100 µM, the TGI [32] was greater than 100 µM and the TGI [33] was greater than 100 µM. For the same molecule, the TGI [34] was greater than 100 µM, the TGI [35] was greater than 100 µM and the TGI [36] was greater than 100 µM. It also gave a TGI [37] greater than 100 µM, a TGI [38] greater than 100 µM and a TGI [40] greater than 100 µM. For the same molecule, the TGI [41] was greater than 100 µM, the TGI [42] was greater than 100 µM and the TGI [43] was greater than 100 µM. The TGI [44] was greater than 100 µM, the TGI [45] was greater than 100 µM and the TGI [46] was greater than 100 µM. It also gave a TGI [47] greater than 100 µM, a TGI [48] greater than 100 µM and a TGI [49] greater than 100 µM. For the same molecule, the TGI [50] was greater than 100 µM, the TGI [51] was greater than 100 µM and the TGI [52] was greater than 100 µM. For the same molecule, the TGI [53] was greater than 100 µM, the TGI [57] was greater than 100 µM and the TGI [54] was greater than 100 µM. For the same molecule, the TGI [55] was greater than 100 µM and the TGI [59] was greater than 100 µM.
`CC(=O)ONC(C(=O)C(C)(C)C)C(=O)C(C)(C)C` gave a TGI [1] greater than 100 µM, a TGI [2] greater than 100 µM and a TGI [3] greater than 100 µM. It also gave a TGI [4] greater than 100 µM, a TGI [5] greater than 100 µM and a TGI [6] greater than 100 µM. The TGI [7] was greater than 100 µM, the TGI [8] was greater than 100 µM and the TGI [9] was greater than 100 µM. The TGI [10] was greater than 100 µM, the TGI [58] was greater than 100 µM and the TGI [11] was greater than 100 µM. It also gave a TGI [12] greater than 100 µM, a TGI [13] greater than 100 µM and a TGI [14] greater than 100 µM. It also gave a TGI [15] greater than 100 µM, a TGI [16] greater than 100 µM and a TGI [17] greater than 100 µM. It also gave a TGI [18] greater than 100 µM, a TGI [19] greater than 100 µM and a TGI [20] greater than 100 µM. The TGI [21] was greater than 100 µM, the TGI [22] was greater than 100 µM and the TGI [24] was greater than 100 µM. For the same molecule, the TGI [25] was greater than 100 µM, the TGI [26] was greater than 100 µM and the TGI [27] was greater than 100 µM. For the same molecule, the TGI [28] was greater than 100 µM, the TGI [29] was greater than 100 µM and the TGI [30] was greater than 100 µM. For the same molecule, the TGI [31] was greater than 100 µM, the TGI [32] was greater than 100 µM and the TGI [33] was greater than 100 µM. For the same molecule, the TGI [34] was greater than 100 µM, the TGI [35] was greater than 100 µM and the TGI [36] was greater than 100 µM. It also gave a TGI [37] greater than 100 µM, a TGI [38] greater than 100 µM and a TGI [39] greater than 100 µM. The TGI [40] was greater than 100 µM, the TGI [41] was greater than 100 µM and the TGI [42] was greater than 100 µM. For the same molecule, the TGI [43] was greater than 100 µM, the TGI [46] was greater than 100 µM and the TGI [47] was greater than 100 µM. The TGI [48] was greater than 100 µM, the TGI [49] was greater than 100 µM and the TGI [50] was greater than 100 µM. For the same molecule, the TGI [51] was greater than 100 µM, the TGI [52] was greater than 100 µM and the TGI [53] was greater than 100 µM. For the same molecule, the TGI [57] was greater than 100 µM, the TGI [54] was greater than 100 µM and the TGI [55] was greater than 100 µM. It also gave a TGI [59] greater than 100 µM.
